Results from patent US9527889B2, “RFamide-related peptides and methods thereof” (THE REGENTS OF THE UNIVERSITY OF MICHIGAN, priority 2010, dated 2016).
Like-named read-outs stand apart in the source and are kept apart here. Non-standard residues stand in square brackets, D forms with d. Residues, ends and D or L forms follow the SMILES beside them. No end group written: not given here. *: point of attachment. Bpa = N[C@@H](Cc1ccc(C(=O)c2ccccc2)cc1)C(=O)O; Myristoyl = CCCCCCCCCCCCCC(=O)*

Tests used:
[1] = test system: isolated adult rat cardiac myocytes; assay type: cell-based; conditions: for ability to bind and affect myocyte contractile function: 10^−8M, individually administered; for % Change baseline SL / % Change dep v (shortening rate) / % Change peak h (shortening amplitude) / % Change ret v (re-lengthening rate): 10^−8 M; for character relative to hRFRP-1 on myocyte contractile function (agonist, antagonist, reverse agonist; in words): peptides at 10^−8M or 10^−7M, peak shortening, departure and return velocity
Text: Adult rat and rabbit ventricular cardiac myocytes were isolated as previously described (Westfall, M. V. Et al. (1997), Westfall, M. V. and Borton, A. R. (2003)). Hearts from Sprague-Dawley rats and New Zealand white rabbits were perfused and enzymatically digested to isolate myocytes; the protocol was approved by The University of Michigan University Committee on Use and Care of Animals (UCUCA) in accordance with university and federal regulatory guidelines. Aliquots of isolated ventricular myocytes were plated on laminin-coated glass coverslips in serum-containing Dulbecco's Modified Eagle Media (Invitrogen, CA, US) supplemented with 5% fetal bovine serum, and 50 U/ml penicillin and 50 μg/ml streptomycin (pen/strep; Sigma-Aldrich, MO, US). Two hours later, media was replaced with serum-free M199 (Invitrogen) supplemented with 1.8 mM Ca^2+, 10 mM HEPES, 10 mM glutathione, and pen/strep. Rat myocytes were transferred to a stimulation chamber and electrically paced the day after isolation (Zornik, E. Et al. (1999), Westfall, M. V. Et al. (1997)). Media was changed daily for all myocyte preparations.
Sarcomere shortening was detected using a video-based detection system (IonOptix, MA, USA) as described earlier (Westfall, M. V. and Borton, A. R. (2003)). Rat myocytes were paced at 0.2 Hz and rabbit myocytes were paced at 0.5 Hz or 1.0 Hz for these studies. Recordings were made prior to application of each peptide concentration, the protein kinase C (PKC) inhibitor bisindolylmaleimide-1, (bis-1; CalBiochem/EMD, NJ, US), or media only (control, C) and at 1, 3, 5, 10 and 15 minutes after application of peptide, bis-1, or media. Signal averaged data were analyzed to determine resting sarcomere length, shortening amplitude (peak shortening), shortening rate (departure velocity), and re-lengthening rate (return velocity), as previously described (Westfall, M. V. Et al. (1997), Westfall, M. V. and Borton, A. R. (2003)), in 7-20 myocytes from 3-4 rats for each peptide concentration, bis-1, and media.

D. melanogaster heart = assay type: in vivo, Drosophila melanogaster; conditions: for effect on fly heart rate / contractility (in words): DMS analogs; for EC50: in vivo, maximal effect 1 minute after microinjection, read-out: best-fit EC50, decrease of heart rate; for heart rate, % of the basal contraction rate: within 1 minute
Procedure: D. melanogaster Oregon R wild-type strain flies were maintained on cornmeal molasses media at 24° C. under a 12 hour light/dark cycle. The animals selected for analysis were larvae, prepupae, or adults; both females and males were analyzed and no difference in response was observed. An animal was positioned onto double-stick tape adhered to a microscope stage and heart rate was monitored for 2 minutes before and 10 minutes after saline (control) or peptide was delivered as previously described (Nichols, R. Et al. (1999), Zornik, E. et al. (1999)). A drawn-out micropipette was used to deliver saline or peptide (40 ηl) into the hemolymph (blood) at a site anterior to the brain to avoid tissue damage to the central nervous system and dorsal vessel (aorta and heart). Each animal received only one microinjection of saline or peptide. In some cases, recordings were extended up to 1 hour to establish the return to baseline. Data were averaged from several animals (n≧10) and reported relative to the basal heart rate.
The influence of DMS (Dromyosuppressin peptide; […]amide—SEQ ID NO: 1) on in vivo heart rate in D. melanogaster was compared to physiological saline to evaluate dose-dependent effects of myosuppressin in cardiac function in a model amenable to molecular genetics. […] The dose-dependent effects of dromyosuppressin reported were evaluated in pupae because the animals are immobile and, thus, this developmental stage is the easiest to observe and record heart contractions. The effects of DMS were measured over a range of ten-fold concentrations from 10^−6 M to 10^−11 M and compared to the influence of physiological saline (mean±SEM; 91±3% basal contraction rate at 1 minute; n=18). […] Significant reductions in heart rate were detected in response to DMS concentrations of 10^−9 M and higher, and the peak responses were observed within 1 minute of microinjection of the peptide. The DMS-induced effects typically were observed over 2-3 minutes, and were reversible, returning to approximately basal contraction rate levels in about 5 minutes in response to 10^−8 M and 10^−9 M. At the highest concentrations tested, 10^−6 M and 10^−7 M, DMS decreased heart rate to 25±11% (n=14) and 25±7% (n=16), respectively, within 1 minute. The DMS-induced effects were sustained for 3-5 minutes before they returned to approximately basal contraction rate levels within 30 minutes.

Protophormia terraenovae = assay: Cardiac arrest in intact blowfly (electrocardiograms); assay type: in vivo
Procedure: In order to determine the effect of DMS on cardiac arrest in a larger invertebrate various concentrations of DMS were applied to intact Protophormia terraenovae, a blowfly, and electrocardiograms were recorded continuously [Angioy et al. 2007]. […] Signal resumed in animals; the recovery time shortened at lower DMS concentrations.

CN(C)CCCn1cc(C2=C(c3c[nH]c4ccccc34)C(=O)NC2=O)c2ccccc21 [bis-1, bisindolylmaleimide-1, reference compound]
effect of inhibitor on the influence of 10^−8 M hRFRP-1 on shortening amplitude, shortening and re-lengthening rates ([1]; 500 ηM inhibitor, 15 minutes): largely blocked

TDVDHAFLRFamide (TDVDHAFLRF-NH2) [[A6]DMS]
effect on fly heart rate / contractility (in words) (D. melanogaster heart): increase heart rate

PQRFamide (PQRF-NH2)
ability to bind and affect myocyte contractile function [1]: in a manner similar to the parent peptide hRFRP-1

LAEELSSYSRRKGGFSFRFamide (LAEELSSYSRRKGGFSFRF-NH2) [26RFa(8-26), reference compound]
% Change baseline SL ([1]; 15 minutes): −0.04 ± 0.1% | % Change dep v (shortening rate) ([1]; 15 minutes): −6.0 ± 4.4% | % Change peak h (shortening amplitude) ([1]; 15 minutes): −4.3 ± 5.7% | % Change ret v (re-lengthening rate) ([1]; 15 minutes): −7.3 ± 6.3%

VDHVFLRFamide (VDHVFLRF-NH2)
effect on fly heart rate / contractility (in words) (D. melanogaster heart): activity similar to the parent DMS peptide

YMPIISFANLPLRF-NH2 [Y-hRFRP-1]
character relative to hRFRP-1 on myocyte contractile function (agonist, antagonist, reverse agonist; in words) [1]: hRFRP-1 agonist

PKI-(Myr-14-22)-amide (Myristoyl-SGRTGRRNA-NH2; SMILES CCCCCCCCCCCCCC(=O)N[C@@H](CO)C(=O)NCC(=O)N[C@@H](CCCNC(=N)N)C(=O)N[C@H](C(=O)NCC(=O)N[C@@H](CCCNC(=N)N)C(=O)N[C@@H](CCCNC(=N)N)C(=O)N[C@@H](CC(N)=O)C(=O)N[C@@H](C)C(N)=O)[C@@H](C)O; UniProt P61925 14-22, looked up, fragment) [reference compound]
effect of inhibitor on the activity of hRFRP-1 ([1]; isolated ventricular cardiac myocytes): modifies the activity of hRFRP-1

FLRFamide (FLRF-NH2)
effect on fly heart rate / contractility (in words) (D. melanogaster heart): DMS antagonist

CC(C)C[C@H](NC(=O)[C@H](Cc1ccccc1)NC(=O)[C@@H](NC(=O)[C@H](Cc1c[nH]cn1)NC(=O)[C@H](CC(=O)O)NC(=O)[C@@H](NC(=O)[C@H](Cc1ccc(C(=O)c2ccccc2)cc1)NC(=O)[C@@H](NC(=O)[C@@H](N)Cc1ccc(O)cc1)[C@@H](C)O)C(C)C)C(C)C)C(=O)N[C@@H](CCCNC(=N)N)C(=O)N[C@@H](Cc1ccccc1)C(N)=O [Y-[Bpa2]DMS] (H-YT[Bpa]VDHVFLRF-NH2; N-terminus assumed)
EC50 (D. melanogaster heart): 0.13 nM

MP(Bpa)SFANLPLRFamide (MP[Bpa]SFANLPLRF-NH2; N-terminus assumed; SMILES CSCC[C@H](N)C(=O)N1CCC[C@H]1C(=O)N[C@@H](Cc1ccc(C(=O)c2ccccc2)cc1)C(=O)N[C@@H](CO)C(=O)N[C@@H](Cc1ccccc1)C(=O)N[C@@H](C)C(=O)N[C@@H](CC(N)=O)C(=O)N[C@@H](CC(C)C)C(=O)N1CCC[C@H]1C(=O)N[C@@H](CC(C)C)C(=O)N[C@@H](CCCNC(=N)N)C(=O)N[C@@H](Cc1ccccc1)C(N)=O) [[Bpa3]hRFRP-1]
character relative to hRFRP-1 on myocyte contractile function (agonist, antagonist, reverse agonist; in words) [1]: increases cardiac function

TDVDAVFLRFamide (TDVDAVFLRF-NH2) [[A5]DMS]
effect on fly heart rate / contractility (in words) (D. melanogaster heart): increase heart rate

LPLRFamide (LPLRF-NH2)
ability to bind and affect myocyte contractile function [1]: in a manner similar to the parent peptide hRFRP-1

PHSFANLPLRFamide (PHSFANLPLRF-NH2)
character relative to hRFRP-1 on myocyte contractile function (agonist, antagonist, reverse agonist; in words) [1]: super-agonist

VPHSAANLPLRFamide (VPHSAANLPLRF-NH2; listed as Rattus norvegicus) [rRFRP-1]
% Change baseline SL ([1]; 15 minutes): −0.3 ± 0.1% | % Change dep v (shortening rate) ([1]; 15 minutes): −22.1±6.0% | % Change peak h (shortening amplitude) ([1]; 15 minutes): −17.7±4.3% | % Change ret v (re-lengthening rate) ([1]; 15 minutes): −25.5±3.9%

FANLPLRFamide (FANLPLRF-NH2)
ability to bind and affect myocyte contractile function [1]: in a manner similar to the parent peptide hRFRP-1

KGGFSFRFamide (KGGFSFRF-NH2; listed as Rattus norvegicus) [26RFa(19-26), reference compound]
% Change baseline SL ([1]; 15 minutes): −0.4 ± 0.2% | % Change dep v (shortening rate) ([1]; 15 minutes): −5.3 ± 5.6% | % Change peak h (shortening amplitude) ([1]; 15 minutes): −7.7 ± 4.8% | % Change ret v (re-lengthening rate) ([1]; 15 minutes): −8.1 ± 5.0%

VFLRFamide (VFLRF-NH2)
effect on fly heart rate / contractility (in words) (D. melanogaster heart): capable of not only binding, but exerting an effect on cardiac contractility

CC(C)C[C@H](NC(=O)[C@H](Cc1ccccc1)NC(=O)[C@@H](NC(=O)[C@H](Cc1c[nH]cn1)NC(=O)[C@H](CC(=O)O)NC(=O)[C@@H](NC(=O)[C@H](CC(=O)O)NC(=O)[C@@H](N)[C@@H](C)O)C(C)C)C(C)C)C(=O)N[C@@H](CCCNC(=N)N)C(=O)N[C@@H](Cc1ccccc1)C(N)=O [DMS] (H-TDVDHVFLRF-NH2; N-terminus assumed)
time effects were sustained (D. melanogaster heart; 10^−6 M and 10^−7 M): 3 to 5 min | time to return to approximately basal contraction rate (D. melanogaster heart; 10^−6 M and 10^−7 M): ≤ 30 min | heart rate, % of the basal contraction rate (D. melanogaster heart; 10^−6 M, pupae): 25±11% | heart rate, % of the basal contraction rate (D. melanogaster heart; 10^−7 M, pupae): 25±7% | time to return to approximately basal contraction rate (D. melanogaster heart; 10^−8 M and 10^−9 M): about 5 minutes | heart rate, % of the basal contraction rate (D. melanogaster heart; 10^−10 M, pupae): 77±4% | time to maximal effect on heart rate (D. melanogaster heart; after microinjection, pupae): ≤ 1 min | EC50 (D. melanogaster heart): 3 nM | responses on heart contractions in larvae and in adults (D. melanogaster heart; similar range of concentrations, larvae and adults): less robust but significant responses | time over which effects were observed (D. melanogaster heart; typical, 10^−8 M and 10^−9 M): 2 to 3 min | animals with cardiac arrest (Protophormia terraenovae; 10 μM, 1 μM, and 0.1 ηM, n=10 at each concentration): 100% | animals with cardiac arrest (Protophormia terraenovae; lower concentrations): ~50%

AFLRFamide (AFLRF-NH2)
effect on fly heart rate / contractility (in words) (D. melanogaster heart): capable of not only binding, but exerting an effect on cardiac contractility

[A9]hRFRP-1: parent hRFRP-1 peptide where the 9th amino acid is replaced by an alanyl residue (MPHSFANLALRF-NH2; listed as Homo sapiens)
peak shortening (peak h) compared with unsubstituted hRFRP-1 ([1]; 10^−8M alanine analogs): significantly different | relaxation (ret v) compared with unsubstituted hRFRP-1 ([1]; 10^−8M alanine analogs): significantly different
